Test results reported in US20240270750A1, “IMIDAZOLE-CONTAINING INHIBITORS OF ALK2 KINASE” (BioCryst Pharmaceuticals, Inc., priority 2021, published 2024).

Biological target: T1, ALK2 (Homo sapiens, UniProt Q04771)
T1 construct: purchased ThermoFisher Scientific (Life Technologies)
T1 sequence (Q04771 21-509): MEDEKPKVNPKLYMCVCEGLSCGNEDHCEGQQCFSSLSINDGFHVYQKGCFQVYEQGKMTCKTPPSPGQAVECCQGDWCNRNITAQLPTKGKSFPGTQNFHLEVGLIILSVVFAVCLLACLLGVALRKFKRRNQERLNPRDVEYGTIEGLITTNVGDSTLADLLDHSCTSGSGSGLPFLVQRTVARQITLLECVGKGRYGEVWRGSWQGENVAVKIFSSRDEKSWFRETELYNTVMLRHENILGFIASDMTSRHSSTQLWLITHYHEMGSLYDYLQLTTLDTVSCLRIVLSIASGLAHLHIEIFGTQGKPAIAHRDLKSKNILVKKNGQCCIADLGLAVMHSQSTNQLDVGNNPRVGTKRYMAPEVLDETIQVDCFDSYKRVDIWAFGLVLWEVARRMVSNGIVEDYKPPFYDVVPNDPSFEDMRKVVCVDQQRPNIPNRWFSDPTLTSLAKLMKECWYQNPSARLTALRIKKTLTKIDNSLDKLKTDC
Assay: LanthaScreen Eu Kinase Binding Assay, ALK2 inhibition
Conditions: 1 micromolar concentration
Method: Biochemical assays to measure the inhibitory effects of the compounds were performed by ThermoFisher Scientific (Life Technologies). ALK2 inhibition was tested using LanthaScreen™ Eu Kinase Binding Assay screening protocol.

SMILES | inhibition at 1 µM [%]
COc1cc(-n2cnc(Nc3nc(C(C)C)nc4c3cnn4CC3CCCC3)c2)cc(OC)c1OC [Compound 24c, 1-(cyclopentylmethyl)-6-isopropyl-N-(1-(3,4,5-trimethoxyphenyl)-1H-imidazol-4-yl)-1H-pyrazolo[3,4-d]pyrimidin-4-amine] | > 50
COc1cc(-n2cnc(Nc3nc(CC4CC4)nc4c3cnn4C(C)C)c2)cc(OC)c1OC [Compound 34d, 6-(cyclopropylmethyl)-1-isopropyl-N-(1-(3,4,5-trimethoxyphenyl)-1H-imidazol-4-yl)-1H-pyrazolo[3,4-d]pyrimidin-4-amine] | > 50
COc1cc2nc(Nc3cn(-c4cc(OC)c(OC)c(OC)c4)cn3)nc(C(C)C)c2cc1OC [Compound 87a, 4-isopropyl-6,7-dimethoxy-N-(1-(3,4,5-trimethoxyphenyl)-1H-imidazol-4-yl)quinazolin-2-amine] | > 50
C=C(C)c1nc(Nc2cn(-c3cc(OC)c(OC)c(OC)c3)cn2)c2ncn(C(C)C)c2n1 [Compound 74c, 9-isopropyl-2-(prop-1-en-2-yl)-N-(1-(3,4,5-trimethoxyphenyl)-1H-imidazol-4-yl)-9H-purin-6-amine] | > 50
COc1cc(-n2cnc(Nc3nc(C(C)C)nc4ncccc34)c2)cc(OC)c1OC [Compound 102e, 2-isopropyl-N-(1-(3,4,5-trimethoxyphenyl)-1H-imidazol-4-yl)pyrido[2,3-d]pyrimidin-4-amine] | > 50
COc1cc(-n2cnc(Nc3nc(CC4CC4)nc4c3cnn4C3CC3)c2)cc(OC)c1OC [Compound 122e, 1-cyclopropyl-6-(cyclopropylmethyl)-N-(1-(3,4,5-trimethoxyphenyl)-1H-imidazol-4-yl)-1H-pyrazolo[3,4-d]pyrimidin-4-amine] | > 50
C=C(C)c1nc(Nc2cn(-c3cc(OC)c(OC)c(OC)c3)cn2)nc2cc(OC)c(OC)cc12 [Compound 68b, 6,7-dimethoxy-4-(prop-1-en-2-yl)-N-(1-(3,4,5-trimethoxyphenyl)-1H-imidazol-4-yl)quinazolin-2-amine] | > 50
COc1cc(-n2cnc(Nc3nc(C(C)C)nn4cccc34)c2)cc(OC)c1OC [Compound 67a, 2-isopropyl-N-(1-(3,4,5-trimethoxyphenyl)-1H-imidazol-4-yl)pyrrolo[2,1-f][1,2,4]triazin-4-amine] | > 50
COc1cc(-n2cnc(Nc3nc(C)c4cnn(C(C)C)c4n3)c2)cc(OC)c1OC [Compound 11b, 1-isopropyl-4-methyl-N-(1-(3,4,5-trimethoxyphenyl)-1H-imidazol-4-yl)-1H-pyrazolo[3,4-d]pyrimidin-6-amine] | > 50
C=C(C)c1nc(Nc2cn(-c3cc(OC)c(OC)c(OC)c3)cn2)c2ncccc2n1 [Compound 78c, 2-(prop-1-en-2-yl)-N-(1-(3,4,5-trimethoxyphenyl)-1H-imidazol-4-yl)pyrido[3,2-d]pyrimidin-4-amine] | > 50
COc1cc(-n2cnc(Nc3nc(C4=CCN(C)CC4)nc4c3cnn4C(C)C)c2)cc(OC)c1OC [Compound 38b, 1-isopropyl-6-(1-methyl-1,2,3,6-tetrahydropyridin-4-yl)-N-(1-(3,4,5-trimethoxyphenyl)-1H-imidazol-4-yl)-1H-pyrazolo[3,4-d]pyrimidin-4-amine] | > 50
COc1cc(-n2cnc(Nc3nc(C(C)C)nc4c3cnn4-c3ccccc3)c2)cc(OC)c1OC [Compound 39d, 6-isopropyl-1-phenyl-N-(1-(3,4,5-trimethoxyphenyl)-1H-imidazol-4-yl)-1H-pyrazolo[3,4-d]pyrimidin-4-amine] | > 50
CCCC(C)n1ncc2c(Nc3cn(-c4cc(OC)c(OC)c(OC)c4)cn3)nc(C(C)C)nc21 (stereo not shown) [Compound 15e, 6-isopropyl-1-(pentan-2-yl)-N-(1-(3,4,5-trimethoxyphenyl)-1H-imidazol-4-yl)-1H-pyrazolo[3,4-d]pyrimidin-4-amine] | > 50
COc1cc(-n2cnc(Nc3nc(C4CCN(C(=O)OC(C)(C)C)C4)nc4c3cnn4C(C)C)c2)cc(OC)c1OC (stereo not shown) [Compound 41a, tert-butyl 3-(1-isopropyl-4-((1-(3,4,5-trimethoxyphenyl)-1H-imidazol-4-yl)amino)-1H-pyrazolo[3,4-d]pyrimidin-6-yl)pyrrolidine-1-carboxylate] | > 50
C=C(C)c1nc2c(c(Nc3cn(-c4cc(OC)c(OC)c(OC)c4)cn3)n1)COC2 [Compound 71c, 2-(prop-1-en-2-yl)-N-(1-(3,4,5-trimethoxyphenyl)-1H-imidazol-4-yl)-5,7-dihydrofuro[3,4-d]pyrimidin-4-amine] | > 50
C=C(C)c1nc(Nc2cn(-c3cc(OC)c(OC)c(OC)c3)cn2)c2cc(F)ccc2n1 [Compound 95c, 6-fluoro-2-(prop-1-en-2-yl)-N-(1-(3,4,5-trimethoxyphenyl)-1H-imidazol-4-yl)quinazolin-4-amine] | > 50

SMILES | inhibition at 1 µM [%]
COc1cc(-n2cnc(Nc3nc(C4CCCCC4)c4cnn(C(C)C)c4n3)c2)cc(OC)c1OC [Compound 12b, 4-cyclohexyl-1-isopropyl-N-(1-(3,4,5-trimethoxyphenyl)-1H-imidazol-4-yl)-1H-pyrazolo[3,4-d]pyrimidin-6-amine] | > 50
C=C(C)c1nc2c(c(Nc3cn(-c4cc(OC)c(OC)c(OC)c4)cn3)n1)CCC2 [Compound 60c, 2-(prop-1-en-2-yl)-N-(1-(3,4,5-trimethoxyphenyl)-1H-imidazol-4-yl)-6,7-dihydro-5H-cyclopenta[d]pyrimidin-4-amine] | > 50
COc1cc(-n2cnc(Nc3nc(C(C)C)c4cnn(C(C)C)c4n3)c2)cc(OC)c1OC [Compound 8b, 1,4-diisopropyl-N-(1-(3,4,5-trimethoxyphenyl)-1H-imidazol-4-yl)-1H-pyrazolo[3,4-d]pyrimidin-6-amine] | > 50
COc1cc(-n2cnc(Nc3nc(C(C)C)nc4c3COC4)c2)cc(OC)c1OC [Compound 72a, 2-isopropyl-N-(1-(3,4,5-trimethoxyphenyl)-1H-imidazol-4-yl)-5,7-dihydrofuro[3,4-d]pyrimidin-4-amine] | > 50
C=C(C)c1nc(Nc2cn(-c3cc(OC)c(OC)c(OC)c3)cn2)c2cnn(C(C)C)c2n1 [Compound 3d, 1-isopropyl-6-(prop-1-en-2-yl)-N-(1-(3,4,5-trimethoxyphenyl)-1H-imidazol-4-yl)-1H-pyrazolo[3,4-d]pyrimidin-4-amine] | > 50
COc1cc(-n2cnc(Nc3nc(C(C)C)nc4c3cnn4-c3c(F)cccc3F)c2)cc(OC)c1OC [Compound 43d, 1-(2,6-difluorophenyl)-6-isopropyl-N-(1-(3,4,5-trimethoxyphenyl)-1H-imidazol-4-yl)-1H-pyrazolo[3,4-d]pyrimidin-4-amine] | > 50
COc1cc(-n2cnc(Nc3nc(C(C)C)nc4cccnc34)c2)cc(OC)c1OC [Compound 83a, 2-isopropyl-N-(1-(3,4,5-trimethoxyphenyl)-1H-imidazol-4-yl)pyrido[3,2-d]pyrimidin-4-amine] | > 50
C=C(C)c1nc(Nc2cn(-c3cc(OC)c(OC)c(OC)c3)cn2)c2sccc2n1 [Compound 51c, 2-(prop-1-en-2-yl)-N-(1-(3,4,5-trimethoxyphenyl)-1H-imidazol-4-yl)thieno[3,2-d]pyrimidin-4-amine] | > 50
COc1cc(-n2cnc(Nc3nc(C(C)CCO)nc4c3cnn4C(C)C)c2)cc(OC)c1OC (stereo not shown) [Compound 49b, 3-(1-isopropyl-4-((1-(3,4,5-trimethoxyphenyl)-1H-imidazol-4-yl)amino)-1H-pyrazolo[3,4-d]pyrimidin-6-yl)butan-1-ol] | > 50
COc1cc(-n2cnc(Nc3nc(C(C)C)nc4sccc34)c2)cc(OC)c1OC [Compound 81a, 2-isopropyl-N-(1-(3,4,5-trimethoxyphenyl)-1H-imidazol-4-yl)thieno[2,3-d]pyrimidin-4-amine] | > 50
COc1cc(-n2cnc(Nc3nc(C4CC4)c4cnn(C(C)C)c4n3)c2)cc(OC)c1OC [Compound 13b, 4-cyclopropyl-1-isopropyl-N-(1-(3,4,5-trimethoxyphenyl)-1H-imidazol-4-yl)-1H-pyrazolo[3,4-d]pyrimidin-6-amine] | > 50
CCn1ncc2c(Nc3cn(-c4cc(OC)c(OC)c(OC)c4)cn3)nc(CC3CC3)nc21 [Compound 124e, 6-(cyclopropylmethyl)-1-ethyl-N-(1-(3,4,5-trimethoxyphenyl)-1H-imidazol-4-yl)-1H-pyrazolo[3,4-d]pyrimidin-4-amine] | > 50
CCOC(=O)CC(C)c1nc(Nc2cn(-c3cc(OC)c(OC)c(OC)c3)cn2)c2cnn(C(C)C)c2n1 (stereo not shown) [Compound 103c, ethyl 3-(1-isopropyl-4-((1-(3,4,5-trimethoxyphenyl)-1H-imidazol-4-yl)amino)-1H-pyrazolo[3,4-d]pyrimidin-6-yl)butanoate] | > 50
COc1cc(-n2cnc(Nc3nc(CC4CC4)nc4c3cnn4C)c2)cc(OC)c1OC [Compound 125e, 6-(cyclopropylmethyl)-1-methyl-N-(1-(3,4,5-trimethoxyphenyl)-1H-imidazol-4-yl)-1H-pyrazolo[3,4-d]pyrimidin-4-amine] | > 50
C=C(C)c1nc2c(c(Nc3cn(-c4cc(OC)c(OC)c(OC)c4)cn3)n1)CCCC2 [Compound 88c, 2-(prop-1-en-2-yl)-N-(1-(3,4,5-trimethoxyphenyl)-1H-imidazol-4-yl)-5,6,7,8-tetrahydroquinazolin-4-amine] | > 50
